# Results taken from patent publication US20160089377A1, “THERAPEUTIC TARGETING OF THE MTOR PATHWAY IN NEURODEVELOPMENTAL AND NEUROPSYCHIATRIC DISEASE” (THE TRUSTEES OF COLUMBIA UNIVERISTY IN THE CITY OF NEW YORK, priority 2013, published 2016).
# Entries after “also recorded” stand apart in the source; their conditions may differ.
# Legend:
# [1] = test system: glutamate receptor subunits GluR1, GluR2, NR1, NR2A, NR2B and mGluR5; assay: Immunoblot of glutamate receptor subunits in PFC homogenates after treatment; type: in vivo, mice; conditions: for expression of glutamate receptor subunits altered in mutants: Cntnap2-/- and Cntnap2+/- mice aged 5-8 months
# Protocol: (§1) euthanized. For the electrophysiology and western blot rescue experiments, adult mice were gavaged for 14 consecutive days after which they were euthanized.
# (§2) Western blot analysis of mouse brain tissue and immunocytochemistry in human brain tissue was performed using standard methods.
# We also evaluated whether treatment with WYE126132 reverses the alterations in the expression of the glutamate receptor subunits found in Cntnap2 mutant mice. Mice aged 5-8 months were treated for consecutive days.
# Cntnap2 mutant mice = assay: Novel Object Recognition (NOR) test; type: in vivo; conditions: WYE125132-treated Cntnap2-/- mice, P<0.05
# Protocol: (§3) Cntnap2 mutant and WT mice were obtained from heterozygous crossings and were born with the expected Mendelian frequencies. The three obtained genotypes were housed together. Mice were treated with p.o. gavaging once per day with either WYE125132 (10 mg/kg) or vehicle. All procedures involving animals were performed in accordance with the Columbia University/New York State Psychiatric Institute animal research committee.
# WYE125132 (Chemscene) was administered by a daily p.o. gavaging in a volume of 10 ml/kg. For all behavioral experiments, dams were treated from PO to P12 after which individual pups were gavaged on a daily basis going forward. Mice also received drug treatment on the days of testing, at least 1 hour prior the experiment. For the two-photon and cell size quantitation studies, mice were gavaged from P12 to p35, after they were
# Mice were marked with ear tagging. Experimenters were blinded to the genotype during testing. Behavioral tests were performed in the New York State Psychiatric Institute behavioral test core facility.
# We examined whether we could reverse cognitive deficits in Cntnap2 mutant mice. We subjected Cntnap2 mutant mice to the Novel Object Recognition (NOR) test, a behavioral task that requires precise cognitive control. […]
# [2] = test system: phosphorylated ribosomal protein S6 (pS6); assay: Immunoblot of phosphorylated S6 in cortex after WYE125132 treatment; type: in vivo; conditions: cortex of Cntnap2-/- and Cntnap2+/- mice, 14 consecutive days gavage 10 mg/kg
# Protocol: as §3, §1, §2
# We examined whether we can reverse the dramatic enlargement of the pyramidal cell somata by targeting the mTOR overactivation. To this end, mice were gavaged daily with WYE125132 from P12 until P33-36 after which their brains were harvested for further analysis.
# [3] = test system: layer V pyramidal neurons; assay: Spike-timing-dependent LTP, whole-cell recordings from slices of treated adult mice; type: in vivo
# Protocol: (§4) All mice were treated with either WYE125132 or vehicle for a period of 2 weeks after which the animals were euthanized and thalamocortical slices were prepared. Briefly, animals were anesthetized, decapitated and the brain quickly placed into ice-cold dissection buffer containing (in mM): 75 sucrose, 87 NaCl, 2.5 KCl, 1.25 NaH2PO4, 0.5 CaCl2, 7 MgCl2 6H2O, 25 NaHCO3, 10 dextrose, bubbled with 95% O2/5% CO2 (pH 7.4). Slices (400 μm) were prepared with a vibratome (Leica, VT1200S), placed in 33-35° C. for artificial cerebrospinal fluid (ACSF, in mM: 124 NaCl, 2.5 KCl, 1.25 NaH2PO4, 2.5 CaCl2, 1.5 MgSO4 7H2O, 26 NaHCO3, and 10 dextrose) for <30 min; then returned to room temperature >1 hr before use. Slices were then transferred to the recording chamber and perfused (2.0-2.5 ml min-1) with oxygenated ACSF at 33-35° C. and given 30 min to stabilize. Somatic whole-cell recordings were made from layer 5 pyramidal cells in voltage and current clamp mode with a Multiclamp 700B amplifier (Molecular Devices). Selection was based on morphology and electrophysiological criteria. Patch pipettes (3-8MΩ) contained a current clamp solution. Data were filtered at 2 kHz, digitized at 10 kHz and analyzed with Clampfit. Cells were excluded from analysis if Ri or Rs changed by >25% over the course of the recording. Excitatory post-synaptic currents or potentials (EPSCs/Ps) were evoked by extracellular stimulation (0.01-1 ms, 1-10V) with a 4×1 array of electrodes placed in layer 4, and straddling the patched layer 5 neuron. Across mice we compared spontaneous and evoked inhibitory responses by clamping the membrane potential of the cell to sub-threshold levels. Furthermore, we compared inhibition generated by each stimulation electrode, to the corresponding amount of excitation when the cell was held at −80 mV. Lastly, we tested Spike-Timing Dependent Plasticity (STDP).
# as §1
# Whole cell recordings were made from layer V pyramidal cells of the temporal cortex. Focal extracellular stimulation was applied and excitatory and inhibitory currents were measured across various stimulation intensities to assess E:I balance. For plasticity experiments, extracellular stimulation was paired with postsynaptic action potentials (elicited by current injection via the recording electrode) less than 10 ms after the onset of the EPSP 60 times at 0.1 hz. Baseline strength was compared to synaptic strength 6-15 mins after spike pairing.
# We investigated whether we could reverse the impairment in neuronal network activity and plasticity by targeting the overactivation of the mTOR pathway with WYE125132. […]
# [4] = test system: layer V pyramidal neurons; assay: Excitation-inhibition correlation, whole-cell recordings from slices of treated adult mice; type: in vivo
# Protocol: as §4, §1
# Whole cell recordings were made from layer V pyramidal cells of the temporal cortex. Focal extracellular stimulation was applied and excitatory and inhibitory currents were measured across various stimulation intensities to assess E:I balance. […]
# recorded cell. […] We assessed this relation over multiple inputs onto the recorded postsynaptic neuron from different regions of the cortical brain slice, by systematically varying the intensity of extracellular stimulation, such that higher intensities evoke responses from larger subpopulations of presynaptic inputs (House et al., 2011). […]
# [5] = Caspr2-/- / Cntnap2 mutant mice treated with WYE125132 for 2 weeks
# [6] = WT littermates treated with WYE125132 for 2 weeks
smiles,measurement,setting,value
CNC(=O)Nc1ccc(-c2nc(N3CC4CCC(C3)O4)c3cnn(C4CCC5(CC4)OCCO5)c3n2)cc1 [WYE125132],expression of glutamate receptor subunits altered in mutants,[1],entirely reversed; also recorded: complete normalization of all glutamate receptor subunits
same,expression of glutamate receptor subunits altered in mutants,[1]; listed as WYE126132,complete normalization of all glutamate receptor subunits
same,expression of glutamate receptor subunits in WT animals,[1]; WT mice,no effects
same,deficit in the Novel Object Recognition test,Cntnap2 mutant mice,rescue of this phenotype; also recorded: rescue of a deficit
same,phosphorylation of S6 (Phospho-S6: S6),[2],reverses phosphorylation of S6 to levels observed in WT littermates; also recorded: completely reversed
same,LTP induction (in words),[3]; [5],robust LTP; also recorded: successfully induced LTP
same,LTP induction (in words),[3]; [6],robust LTP
same,synaptic modification after spike pairing (example recording),"[3]; WYE125132-treated Cntnap2-/- mouse, single example whole-cell recording",35.1 % increase
same,synaptic modification after spike pairing (LTP summary),"[3]; WYE125132-treated Cntnap2-/- mutant mice, n=8, 6-15 min after pairing, error s.e.m.",45.4±16.4 % increase
same,correlation between excitation and inhibition (in words),[4]; [5],high correlation between excitation and inhibition
same,correlation between excitation and inhibition (in words),[4]; [6],high correlation between excitation and inhibition
same,linear correlation coefficient r between excitation and inhibition (representative recording),"[4]; WYE125132-treated Cntnap2-/- mouse, single representative recording",0.72
same,linear correlation coefficient r between excitation and inhibition (summary),"[4]; WYE125132-treated Cntnap2-/- mutant mice, 14 days gavage, n=12, error s.e.m.",0.43±0.08
